Tests used:
OsCSD1 = tested on: T1, OsCSD1; assay: SOD activity, NBT reduction assay (NADH/PMS), A560; format: biochemical, Oryza sativa; conditions: 1 h pre-incubation with DDC (0-2.0 mM); 1 U enzyme; Tris-HCl 50 mM pH 8.0, EDTA 0.1 mM
T1 construct: gene SODCC1

OsCSD4 = tested on: T2, OsCSD4; assay: SOD activity, NBT reduction assay (NADH/PMS), A560; format: biochemical, Oryza sativa; conditions: 1 h pre-incubation with DDC (0-2.0 mM); 1 U enzyme; Tris-HCl 50 mM pH 8.0, EDTA 0.1 mM
T2 construct: gene SODCC2

IC50 (OsCSD1): 520 µM
IC50 (OsCSD4): 500 µM
Structure (SMILES): CCN(CC)C(=S)S [diethyldithiocarbamate]

— PMC9191229, “Molecular and Biochemical Analysis of Duplicated Cytosolic CuZn Superoxide Dismutases of Rice and in silico Analysis in Plants” (Frontiers in Plant Science, 2022)
